Experimental data: paper PMC12575728, “Galactose-modified small molecule modulator targets RORα to enhance circadian rhythm and alleviate periodontitis-associated alveolar bone loss” (Bone Research, 2025)

Legend:
[1] = parameters: method as in PMID 20735016; settings: cited from earlier work
RORα/γ = assay: PCR of RORα/γ downstream target genes G6Pase and FGF21 in HepG2 cells; type: cell-based
Experimental: Cells were seeded into 6-well plates, treated with the drug for 24 h, and total RNA samples were extracted using TRIzol reagent (Vazyme, China). The extraction of total RNA was performed according to the following steps: After removal of the supernatant, the cells were thoroughly washed three times with phosphate-buffered saline (PBS). Subsequently, the cells were lysed by the application of 1 mL TRIzol reagent. The resulting samples were harvested into frozen 2 mL Eppendorf microcentrifuge tubes and incubated at room temperature for 5 min. A volume of 0.2 mL of chloroform was added to the microcentrifuge tubes to ensure homogenization of the samples, which were then vortexed and incubated at room temperature for another 10 min. The samples were then centrifuged at a speed of 12 000 × g in a microcentrifuge at 4 °C for 15 min. The upper aqueous phase was subsequently collected and transferred to a new 2 mL microcentrifuge tube and mixed with an equal volume of isopropanol. The mixture was then centrifuged at a speed of 12 000 × g in a table microcentrifuge at 4 °C for 10 min. The resulting precipitates were washed once with 1 mL of 75% ethanol and once with 100% ethanol, followed by centrifugation at a speed of 7 500 × g in a table microcentrifuge for 5 min. Finally, the pellet was dissolved in RNase-free DEPC-treated water.
(§1) RNA from liver, periodontal tissues and cell samples was prepared as previously described. Total RNA (1 ug) was synthesized into cDNA using […] (Vazyme). mRNA expression levels were normalized to GAPDH. Relative expression levels and enrichment contents were calculated using the comparative Ct Method. Primer information is detailed in Data file S1.

RORα = assay: G6Pase and Fgf21 mRNA in mouse liver after IP injection; type: in vivo, mice; settings: 10 mg/kg IP, liver collected 24 h after injection
Experimental: as §1

β-galactosidase = assay: Hydrolysis of Gala-SR by β-galactosidase (MS); type: in vitro ADME; settings: mass spectrometry
[2] = tested on: human periodontal ligament stem cells; assay: qPCR of circadian clock genes in synchronized human periodontal ligament stem cells; type: cell-based; settings: synchronized hPDLSCs, 5 µM, compared to DMSO and SR1078
Experimental: as §1
(§2) 379 Figure S34. Exploration of the inhibitory effect of compound 9 on the targeting function of RORs. a.
(§3) 380 Synthetic route of compound 9. b. Cytotoxicity assessment of compound 9 by CCK-8 assay. c.qPCR
(§4) 381 analysis of downstream target genes (FGF21 and G6Pase) in compound 9-treated HepG2 cells(n=6).
(§5) 382 d. Cotransfection of HEK293T cells with RORα or RORγ and reporters containing the FGF21 or
(§6) 384 5μM each of Gala-SR and SR1078. (* represents the comparison with DMSO*P<0.05, n=4).
(§7) 386 Figure S35. Impact of Gala-SR on circadian clock gene expression in periodontal ligament stem cells.
(§8) 387 qPCR analysis of core clock genes at multiple time points in synchronized hPDLSCs treated with 5
(§9) 391 Figure S36.Toxicity and safety evaluation in vivo.a. After intraperitoneal injection of Gala-SR and
(§10) 392 SR1078 for 2 weeks, mouse serum was collected to measure […] (ALT, AST, CREA,
393 and BUN. ns, not significant) to assess the drugs' impact on liver function. b. HE staining was […]

jet lag mice = assay: Clock gene mRNA in liver of jet lag mice; type: in vivo; settings: mice with disordered circadian rhythms
Experimental: as §1
Male C57BL/6 mice,[40] 2 months old, were housed under disrupted conditions for 4 weeks. From the third week, they were intraperitoneally injected with Gala-SR, SR1078, or DMSO for 3 weeks. In the fifth week, general anesthesia was administered via intraperitoneal injection of pentobarbital sodium (40 mg/kg), and a ligature was placed around the cervix of the maxillary second molar to establish the murine periodontitis model. Collect gingival tissue and liver tissue every 6 h continuously for a duration of 48 h.

[3] = Toxicity and safety evaluation in vivo (blood biochemistry, histopathology); settings: mice, 10 mg/Kg
Experimental: as §2, §3, §4, §5, §6, §7, §8, §9, §10
393 and BUN. ns, not significant) to assess the drugs' impact on liver function. b. HE staining was
394 performed on liver, kidney, and heart tissues from mice after 2 weeks of intraperitoneal injection with […]

| SMILES | safe dose for in vitro experiments ([1]; in vitro) [µmol/L] | safe dose for animal studies ([1]; mice) [mg/kg] | G6Pase and FGF21 expression, with galactosidase inhibitor (RORα/γ; HepG2, 5 μmol/L Gala-SR + β-galactosidase inhibitor, vs pure Gala-SR) | G6Pase and FGF21 expression, with galactosidase (RORα/γ; HepG2, 5 μmol/L Gala-SR + β-galactosidase, vs pure Gala-SR) | G6Pase and FGF21 mRNA expression (RORα/γ; HepG2 cells, 5 μmol/L, 24 h, compared to SR1078) | G6Pase and FGF21 expression in mice liver compared to SR1078 (RORα) | hydrolysis upon addition of galactosidase (release of SR1078) (β-galactosidase) | rhythmic expression amplitude of BMAL1, PER1, and PER2 [2] | circadian rhythm of clock gene expression in liver tissue (jet lag mice) | histopathological examination of liver, kidney, and heart [3] |
| --- | --- | --- | --- | --- | --- | --- | --- | --- | --- | --- |
| O=C(Nc1ccc(C(O)(C(F)(F)F)C(F)(F)F)cc1)c1ccc(C(F)(F)F)cc1 [SR1078, reference compound] | 5 | 10 | – | – | – | – | – | – | – | – |
| O=C(Nc1ccc(C(OCO[C@@H]2O[C@H](CO)[C@H](O)[C@H](O)[C@H]2O)(C(F)(F)F)C(F)(F)F)cc1)c1ccc(C(F)(F)F)cc1 [Gala-SR] | – | – | downregulated | significantly upregulated | significant upregulation | significantly upregulated | hydrolysis of galactose on, Gala-SR occurred | more effectively enhanced | effectively restored | no discernible changes |
